US9682125B2, “Compositions and methods for treating cognitive deficits” (Case Western Reserve University, priority 2011, dated 2017)
No end group written: not given here.

What was measured:
HO-1 = test: Western blotting of hippocampal HO-1; type: in vivo; details: SAMP8 mice, 5 weeks, compared to saline-treated mice
Procedure: (§1) All SAMP8 mice were sacrificed by lethal overdose 5 weeks after the initiation of the pramlintide and saline treatments. The brains were harvested and the hippocampus was dissected and homogenized in protease and phosphatase inhibitor-supplemented 1×RIPA lysis/extraction buffer (Pierce). Total protein was quantified using the BCA Protein Assay Kit (Pierce). 10-20 μg of protein was run in a 10% SDS-PAGE gel and the protein was transferred onto Polyvinylidene fluoride (PVDF) membranes (Millipore). After blocking for one hour in 5% milk, the membranes were incubated overnight at 4° C. in the primary antibody at a 1:1000 dilution, followed by a 1-hour incubation with HRP-conjugated IgG at a 1:10,000 dilution. Primary antibodies used were CDK5 (Millipore), P35/P25 (Millipore), Synapsin I (Santa Cruz), and HO-1 (Gift from Dr. Zhu). The blots were developed using Immobilon Western Chemiluminescent HRP Substrate (Millipore) and imaged using FluorChem M (ProteinSimple). Membranes were stripped using Restore Western Blot Stripping Buffer (Thermo Scientific) for reprobing. Quantifications were performed using ImageJ software.

synapsin I = test: Western blotting of hippocampal synapsin I; type: in vivo; details: SAMP8 mice treated five weeks, vs saline
Procedure: as §1

p35, p25 = test: Western blotting of hippocampal p35/p25; type: in vivo; details: hippocampus, SAMP8 mice, five weeks, vs saline
Procedure: as §1

[1] = test system: BrdU-positive cells in the dentate gyrus; test: BrdU immunostaining, hippocampal neurogenesis; type: in vivo; details: 9-month SAMR1 mice, two weeks minipump, compared to saline-treated mice
Procedure: (§2) To determine the acute effects of pramilide on potential mechanisms associated with cognitive function a total of 12 control mice (SAMR1) 9 months of age were used to measure the effects of pramlintide on hippocampal neurogenesis. Half of the mice (n=6) were infused by minipump with pramlintide for a total of two weeks, while the other half (n=6) received minipumps filled with saline. For the last seven days of the experiment, all mice received daily intraperitoneal injections of 50 mg/kg BRDU (Sigma, St Louis, […].) dissolved in 0.9% saline and filtered at […]. One day after the last BRDU injection, mice were deeply anesthetized and transcranially perfused using 4% paraformaldehyde in 0.9% saline. The brains were then extracted and post-fixed in 4% paraformaldehyde for 24 hours, after which they were placed in a 30% sucrose solution for three days. All brains were quick-frozen and then cut into 40 μm sagital sections using a cryostatand stored at 4° C. as floating sections.
BRDU immunohistochemistry was performed as previously described. […]
A validated sterology protocol was used to quantify BrdU-labeled cells in the dentate gyrus. […] All BrdU-positive cells in the dentate gyrus of the hippocampus were counted in every 6th section through the hippocampus, for a total of 12 sections per animal. […]

[2] = Body weight change during 5-week pramlintide minipump infusion; type: in vivo; details: over 5-week treatment period, 0.24 mg/kg/day s.c. minipump, SAMP8 mice
Procedure: SAMP8 and SAM-resistant 1 (SAMR1) mice were obtained from an established colony at Case Western Reserve University. All animals were group housed, provided ad libitum access to a standard diet and water, and were exposed to a 12/12 light/dark daily cycle. The mice were housed under pathogen-free conditions at a temperature of 21±1.5° C.
(§3) All SAMP8 mice were treated with either saline or pramlintide beginning at 6 months of age. A subcutaneous ALZET® osmotic minipump (Model 2002, Durect Corp., Cupertino, Calif., USA) was surgically implanted into all mice as described previously^26. The osmotic mini-pump infused 0.24 mg/kg/day pramlintide acetate (0.6 mg/mL pramlintide, Amylin Pharmaceuticals, Inc., San Diego, Calif.) or saline at a rate of 0.5 μL/hr. Pumps were replaced with new refilled pumps every two weeks throughout the study duration. All animals were weighed weekly throughout the course of the experiment.
To investigate the effects of pramlintide on memory, SAMP8 mice were continually infused with saline or pramlintide for a total of five weeks. Consistent with pramlintide's known anorexic effect, the pramlintide-treated mice experienced a change in body weight of −5.8% (Std=4.7) over the course of the treatment period as compared to a weight change of −0.1% (6.1) for the saline-treated mice. […]

CDK5 = test: Western blotting of hippocampal CDK5; type: in vivo; details: SAMP8 mice treated five weeks, relative to saline-treated group
Procedure: as §1

cyclooxygenase 2 (COX-2) = test: Cellular stress immunohistochemistry, COX-2; type: in vivo, SAMR1 mice; details: mice treated for 2 weeks, compared to saline-treated mice
Procedure: as §2
(§4) To determine whether pramilide had more acute neuroprotective effects in non-pathological conditions, sections from the same mice used for neurogenesis were used to determine markers of cellular stress. […]
(§5) Tissue sections were quantified. […] Six fields across the hippocampus were drawn and % staining within that field was measured using Metamorph software. […]

SAMP8 mice [3] = test: Object recognition task; type: in vivo; details: 7-month SAMP8 mice
Procedure: as §3
A total of 20 SAMP8 mice were used in the object recognition task. […] The mice were allowed to explore the environment for 10 minutes, during which their movements were recorded with a tracking system. […]
Videos recordings of the retention session were scored by an investigator blinded to the treatment groups. Object exploration, defined as the duration of time in which the head of the mouse faced less than ½ cm from the object, was measured during the training and retention sessions. The frequency of object exploration was also recorded, as well as the frequency and time spent rearing and grooming to determine general exploratory behavior. […] The recognition index was calculated as the percent of time spent exploring the novel object versus the total time spent exploring the objects.

4-Hydroxynonenal (HNE) = test: Cellular stress immunohistochemistry, HNE; type: in vivo, SAMR1 mice; details: mice treated for 2 weeks, compared to saline-treated mice
Procedure: as §2, §4, §5

SAMP8 mice [4] = test: Morris water maze (learning, probe and retention trials); type: in vivo; details: chronic amylin; for MWM maze learning: acute leptin at time of testing, FIGS. 10 and 11
Description: In this Example, we examined whether chronic amylin administration has beneficial effects on cognition using senescence-accelerated SAMP8 mice, a validated animal model of mild cognitive impairment (MCI)/early Alzheimer's disease (AD) in which the mice experience premature cognitive deficits. Given that the anorectic effects of amylin are specifically synergistic with another metabolic hormone, leptin, we also studied whether amylin's effects on cognition might be enhanced when used in conjunction with leptin.
(§6) To validate the hypothesis that amylin is a cognitive enhancing drug that can be given alone and that may provide benefit for cognitive dysfunction associated diseases such as AD or age-related cognitive dysfunction (normal or Mild cognitive impairment (MCI)), we determined the ability of chronic treatment with amylin to improve cognitive function in the Morris water maze and object recognition tasks in the age accelerated SAMP8 mouse model, a model of MCI/early AD. […] Furthermore, improvement of amylin treatment in the retention trial, carried out 24 hrs reflects the ability of amylin to improve consolidation to long-term, permanent memory. (FIG. 9).
(§7) We were able to test this hypothesis under chronic amylin treatment and acute delivery of leptin at time of testing in SAMP8 mice. […] The slope of curve for the SAMP8 mice treated with a combination of amylin and leptin was the steepest […]. […] Novel object recognition testing, another cognition-based test, supported our findings in the MWM. […] It is important to note that these studies were carried out in cognitively impaired animals with leptin treatments under acute conditions. As such, it is likely that the lack of observable synergistic additive magnitude derives from insufficient length of leptin treatment.

SAMP8 mice [5] = test: Novel object recognition testing; type: in vivo; details: chronic amylin, leptin delivered acutely, vs saline, FIG. 13
Description: as §6, §7

Q: With CC[C@H](C)[C@H](NC(=O)[C@@H]1CCCN1C(=O)CNC(=O)[C@H](Cc1ccccc1)NC(=O)[C@H](CC(N)=O)NC(=O)[C@H](CC(N)=O)NC(=O)[C@H](CO)NC(=O)[C@H](CO)NC(=O)[C@H](Cc1c[nH]cn1)NC(=O)[C@@H](NC(=O)[C@H](CC(C)C)NC(=O)[C@H](Cc1ccccc1)NC(=O)[C@H](CC(N)=O)NC(=O)[C@H](C)NC(=O)[C@H](CC(C)C)NC(=O)[C@H](CCCNC(=N)N)NC(=O)[C@H](CCC(N)=O)NC(=O)[C@@H](NC(=O)[C@H](C)NC(=O)[C@@H]1CSSC[C@H](NC(=O)[C@@H](N)CCCCN)C(=O)N[C@@H](CC(N)=O)C(=O)N[C@@H]([C@@H](C)O)C(=O)N[C@@H](C)C(=O)N[C@@H]([C@@H](C)O)C(=O)N1)[C@@H](C)O)C(C)C)C(=O)N[C@@H](CC(C)C)C(=O)N1CCC[C@H]1C(=O)N1CCC[C@H]1C(=O)N[C@H](C(=O)N[C@@H](CC(N)=O)C(=O)N[C@H](C(=O)NCC(=O)N[C@@H](CO)C(=O)N[C@@H](CC(N)=O)C(=O)N[C@H](C(=O)N[C@@H](Cc1ccc(O)cc1)C(N)=O)[C@@H](C)O)C(C)C)[C@@H](C)O [pramlintide] as the molecule, how does the “expression of the protein HO-1 in the hippocampus” value (HO-1) read?
A: Its value is “significantly decreased”.

Q: What about the “hippocampal expression of synapsin I” value (synapsin I) of the same molecule?
A: Its value is “significantly increase”.

Q: And the “amount of cleavage product p25” value (p35, p25)?
A: Its value is “no differences”.

Q: And the “amount of the CDK5 activator p35” value (p35, p25)?
A: The value was “no differences”.

Q: What about the “ratio of p25/p35” value (p35, p25) of the same molecule?
A: Its value is “no differences”.

Q: What about the “more BrdU-positive cells in the dentate gyrus” value [1] of the same molecule?
A: The value was 40%.

Q: And the “change in body weight” value [2]?
A: The value was −5.8%.

Q: And the “hippocampal expression of the protein CDK5” value (CDK5)?
A: The value was “significantly increased”.

Q: What about the “COX-2 immunostaining in the hippocampus” value (cyclooxygenase 2 (COX-2)) of the same molecule?
A: The value was “significant decreases”.

Q: What about the recognition index (SAMP8 mice [3]; 5 weeks infusion, retention test 3 hours after training, vs saline) of the same molecule?
A: The recognition index was 0.67 (Std=0.06).

Q: And the “difference score (recognition memory)” value (SAMP8 mice [3]; chronic treatment, vs saline-treated controls)?
A: The value was “significantly increased”.

Q: What about the “HNE immunostaining in the hippocampus” value (4-Hydroxynonenal (HNE)) of the same molecule?
A: The value was “trend toward decreased”.

Q: Which results are given for “amylin: 37-amino acid polypeptide hormone normally co-secreted with insulin by pancreatic beta cells (KCNTATCATQRLANFLVHSSNNFGAILSSTNVGSNTY; not fully specified (C-terminus, bridges); cysteine pairing not given here; UniProt P10997 34-70, looked up)”?
A: learning of the MWM task (SAMP8 mice [4]; SAMP8 (P8) vs non-treated P8, FIG. 8): potent effect on learning; MWM probe trial (SAMP8 mice [4]; SAMP8 vs non-treated P8, FIG. 9): perform better than non-treated P8; MWM maze learning (SAMP8 mice [4]; SAMP8 mice): improved; MWM retention trial (SAMP8 mice [4]; retention carried out 24 hrs, FIG. 9): improvement

B1: leptin: metabolic hormone, delivered acutely at time of testing (protein, UniProt P41160 22-167, looked up)
Leptin: VPIQKVQDDTKTLIKTIVTRINDISHTQSVSAKQRVTGLDFIPGLHPILSLSKMDQTLAVYQQVLTSLPSQNVLQIANDLENLRDLLHLLAFSKSCSLPQTSGLQKPESLDGVLEASLYSTEVVALSRLQGSLQDILQQLDVSPEC
Q: What does the source list for B1?
A: MWM maze learning (SAMP8 mice [4]; SAMP8 mice): improved; MWM probe/retention trials (SAMP8 mice [4]; acute leptin, SAMP8 mice, compared to saline, FIG. 12): no benefits; novel object recognition, discrimination ratio (SAMP8 mice [5]): no benefits
